Experimental findings from ChEMBL document CHEMBL5338709, “Design, synthesis, and structure-activity relationship of TAK-418 and its derivatives as a novel series of LSD1 inhibitors with lowered risk of hematological side effects” (Eur J Med Chem, 2022) are described below.

Structures are written as SMILES. pIC50: −log10 of the molar value.

A word on the AUC(0-t): it is exposure summed from dosing to a finite time, without extrapolation to infinity. Low values mean less exposure, high ones more exposure. By pIC50 is commonly meant the IC50 on a negative log10 scale, so that one unit is a factor of ten.

For data set [1], the system named is Mus musculus. Kind of data set: Improvement of recognition memory in NR1 hypofunction mouse assessed as novelty discrimination index at 0.3 mg/kg, po administered once daily for 2 weeks by novel object recognition test (reference value: 51.4 +/- 3.1%). It is filed as functional.
Data set [2] deals with Mus musculus. Nature of the data set: Improvement of recognition memory in NR1 hypofunction mouse assessed as novelty discrimination index at 1 mg/kg, po administered once daily for 2 weeks by novel object recognition test (reference value: 51.4 +/- 3.1%). The class given is functional.
Data set [3] is described as follows: AUC (0 to 24 hrs) in ICR mouse at 10 mg/kg, po. The class given is ADME, organism-based. To be noted: in vivo. Details: dose 10 mg/kg, route po.
Data set [4] can be described thus: Toxicity in ICR mouse assessed as reduction in platelet count upto 100 mg/kg/day, po administered for 4 days. It is filed as organism-based. To be noted: in vivo, 96 h, time 4 day.
Data set [5] in a line: Toxicity in ICR mouse assessed as reduction in white blood cell count upto 100 mg/kg/day, po administered for 4 days. It is filed as organism-based. To be noted: in vivo, 96 h, time 4 day.
Data set [6] is described as follows: Toxicity in ICR mouse assessed as reduction in red blood cell count upto 100 mg/kg/day, po administered for 4 days. To be noted: in vivo, 96 h, time 4 day. The class given is organism-based.
Data set [7] can be described thus: Metabolic stability in mouse liver microsomes assessed as clearance at 1 uM incubated for 15 to 30 mins in presence of NADPH generating system by LC-MS/MS analysis. To be noted: time 15-30 min, read-out: CLH. The class given is ADME, Microsome. (In general: Microsomes from liver hold many membrane-bound enzymes, among them those of drug oxidation.)
Another data set addresses LSD1/CoREST complex (Homo sapiens, UniProt O60341). Kind of data set: Inhibition of recombinant human LSD1 (172 to 852 residues)/His-tagged human CoREST (286 to 482 residues) expressed in Escherichia coli BL21 (DE3) cells using ART(mK)QTARKSTGGKAPRKQLAGGK-Biotin as substrate assessed as increase in H3K4 methylation incubated for 40 mins.
In another data set the test system is GFI1 mRNA. Nature of the data set: Hematological toxicity in human TF-1a cells assessed as fold increase in GFI1 mRNA expression at 10 uM incubated for 1 day by RT-qPCR analysis relative to control. The class given is cell-based. To be noted: read-out: FC. For orientation: Real-time PCR tracks product formation cycle by cycle.
For data set [8], the target named is Lysine-specific histone demethylase 1A (Homo sapiens, UniProt O60341). Kind of data set: Inhibition of LSD1 (unknown origin).

`O=C(NC1CCOCC1)c1csc([C@@H]2C[C@H]2NCC2CC2)c1`: the values for the Activity with Mus musculus [1] and in the data set with Mus musculus [2] were 62.7% and 66%, respectively. For the same compound, the exposure AUC(0-t) in [3] was 1050 ng·h/mL.
For the compound `Cc1nnc(NC(=O)c2cccc([C@@H]3C[C@H]3NCC3CC3)c2)s1`, the Activity entry in data set [4], in data set [5] and in data set [6] was “Non-Toxic” throughout.
As for `Cc1nnc(NC(=O)c2cc([C@@H]3C[C@H]3NCC3CC3)cs2)s1` (racemic), in data set [7], the microsomal CLint at 1 µM came to 15 µL/min/mg.
The same measure, in the same setting: with `O=C(NC1CCOCC1)c1csc([C@@H]2C[C@H]2NCC2CC2)c1` (racemic) the figure was 13 µL/min/mg.
The same measure, in the same setting: with `Cc1nnc(NC(=O)c2csc([C@@H]3C[C@H]3NCC3CC3)c2)s1` (racemic) the figure was 26 µL/min/mg.
For `O=C(Nc1cccc([C@@H]2C[C@H]2NCC2CC2)c1)c1ccccc1` (racemic), the pIC50 on LSD1/CoREST complex was 5.74. Besides, the fold induction at 24 h, 10 µM in the data set on GFI1 mRNA was 3.51.
Regarding `O=C(Nc1ccccc1)c1cccc([C@@H]2C[C@H]2NCC2CC2)c1` (racemic), the microsomal CLint at 1 µM in data set [7] came to 101 µL/min/mg. Moreover, the pIC50 on LSD1/CoREST complex was 7.09. Further, in the data set on GFI1 mRNA, the fold induction at 24 h, 10 µM was determined as 1.97.
Turning to `CN(C(=O)c1cccc([C@@H]2C[C@H]2NCC2CC2)c1)c1ccccc1` (racemic), on LSD1/CoREST complex, the pIC50 was 6.07. In the data set on GFI1 mRNA, the fold induction at 24 h, 10 µM worked out at 9.6.
On to `O=C(NC1CCC(F)(F)CC1)c1cccc([C@@H]2C[C@H]2NCC2CC2)c1` (racemic), for which the microsomal CLint at 1 µM in data set [7] amounted to 26 µL/min/mg.
`Cc1nnc(NC(=O)c2cccc([C@@H]3C[C@H]3NCC3CC3)c2)s1` (racemic): the microsomal CLint at 1 µM in data set [7] came out at 10 µL/min/mg.
Take `O=C(Nc1ccccc1)c1ccccc1[C@@H]1C[C@H]1NCC1CC1` (racemic): the pIC50 on LSD1/CoREST complex is under 5.00.
`O=C(Nc1cccnc1)c1cccc([C@@H]2C[C@H]2NCC2CC2)c1` (racemic): the microsomal CLint at 1 µM in data set [7] was 47 µL/min/mg. Further, the negative logarithm of the IC50 (pIC50) at LSD1/CoREST complex was 6.80. The fold induction at 24 h, 10 µM with GFI1 mRNA amounted to 1.53.
Consider `O=C(Nc1ccccc1)c1ccc([C@@H]2C[C@H]2NCC2CC2)cc1` (racemic), for which, in data set [8], the negative-log IC50 (pIC50) is 9.00. In the data set with GFI1 mRNA, the fold induction at 24 h, 10 µM was determined as 10.6.
Take `O=C(NC1CCOCC1)c1cccc([C@@H]2C[C@H]2NCC2CC2)c1` (racemic): the microsomal CLint at 1 µM in data set [7] amounted to 11 µL/min/mg.
In data set [8], `O=C(Nc1ccc([C@@H]2C[C@H]2NCC2CC2)cc1)c1ccccc1` (racemic) gave a pIC50 of 8.85. The fold induction at 24 h, 10 µM in the data set with GFI1 mRNA stood at 10.7.
